Measurements as given in patent US20260240171A1, “BACTERICIDAL COMPOSITION COMPRISING BACILLUS VELEZENSIS TCS001 AND USE THEREOF” (priority 2023, published 2026).

Key:
[1] = test system: Bacillus velezensis TCS001; test: Affinity screening of Bacillus velezensis TCS001 and boscalid; assay type: cell-based; conditions: boscalid concentration 400 mg/L in LB plates, 28° C.
Experimental: Preparation of Bacillus velezensis TCS001 seed culture: 1,000 mL of LB solid medium (27 mL×30 vials) and 150 mL of LB liquid medium were prepared and sterilized; a single colony of Bacillus velezensis TCS001 was inoculated into the LB liquid medium and cultured in a shaker at 25° C., 164 rpm, for 16 h.
Preparation of toxin-containing medium: technical grade boscalid was dissolved in DMF to prepare a 10% stock solution for later use, which was diluted with sterile water containing 1%. Tween-80 to 10 times the test dose; 3 mL of the agent solution was sequentially pipetted from low concentration to high concentration, added to 27 mL of LB medium, thoroughly shaken, and equally poured into two culture dishes with a diameter of 9 cm to prepare agent-containing plates at corresponding concentrations. Each treatment had 2 replicates.
Affinity screening: the shaken Bacillus velezensis TCS001 seed culture was diluted to 1×10^6 CFU/mL; 40 μL was pipetted and spread onto the agent-containing plates and the control group plates, and incubated in a dark incubator at 28° C. The growth status of TCS001 was observed.

[2] = test system: strawberry gray mold-causing pathogen; test: Indoor toxicity determination against strawberry gray mold on strawberry fruits; assay type: in vivo; conditions: after 4 days
Experimental: Bacillus velezensis TCS001, boscalid, and a mixture of Bacillus velezensis TCS001 and boscalid were diluted to the test doses. Healthy strawberry fruits were used as the test material. The strawberry fruits were immersed in the agent solution for 20 s. Each treatment had 3 replicates, with 9 fruits per replicate, and all fruits were uniformly punctured to a size of 5 mm×5 mm. A spore suspension of strawberry gray mold-causing pathogen at 1*10^5 spores/mL was prepared. After 24 h, the strawberry fruits treated with the agent solution were surface-sprayed with the spore suspension of strawberry gray mold-causing pathogen for inoculation. The strawberry fruits were placed in a high-humidity environment (RH 90-95%) and cultured at a constant temperature of 22° C. After 4 days, the lesion diameter was measured, and the inhibition rate (%) was calculated.
Inhibition rate (%)=(Diameter of colony in blank control−Diameter of colony in treatment)/Diameter of colony in blank control×100.
[formula] • X: inhibition rate of A at a dose of P; • Y: inhibition rate of B at a dose of Q; • E0: theoretical inhibition rate of A+B at a dose of (P+Q); and • E: actual inhibition rate of each treatment.
The Colby method was used to evaluate the synergistic effect of the combination. When E−E0>5%, a synergistic effect was indicated; when E−E0<−5%, an antagonistic effect was indicated; when the value of E−E0 was within ±5%, an additive effect was indicated.

O=C(Nc1ccccc1-c1ccc(Cl)cc1)c1cccnc1Cl [Boscalid]
colony count of Bacillus velezensis TCS001 [1]: comparable to that of the blank control | Lesion Diameter ([2]; 10 mg/L): 1.77 cm | Lesion Diameter ([2]; 12.5 mg/L): 1.73 cm | Lesion Diameter ([2]; 16 mg/L): 1.66 cm | Lesion Diameter ([2]; 25 mg/L): 1.14 cm | Lesion Diameter ([2]; 33 mg/L): 1.04 cm | Lesion Diameter ([2]; 50 mg/L): 0.99 cm | Lesion Diameter ([2]; 100 mg/L): 0.85 cm | Lesion Diameter ([2]; 160 mg/L): 0.56 cm | inhibition at 10 µg/mL ([2]; 96 h, 10 mg/L, read-out: Actual Inhibition Rate E): 34.4% | inhibition at 12.5 µg/mL ([2]; 96 h, 12.5 mg/L, read-out: Actual Inhibition Rate E): 35.9% | inhibition at 16 µg/mL ([2]; 96 h, 16 mg/L, read-out: Actual Inhibition Rate E): 38.5% | inhibition at 25 µg/mL ([2]; 96 h, 25 mg/L, read-out: Actual Inhibition Rate E): 57.8% | inhibition at 33 µg/mL ([2]; 96 h, 33 mg/L, read-out: Actual Inhibition Rate E): 61.5% | inhibition at 50 µg/mL ([2]; 96 h, 50 mg/L, read-out: Actual Inhibition Rate E): 63.3% | inhibition at 100 µg/mL ([2]; 96 h, 100 mg/L, read-out: Actual Inhibition Rate E): 68.5% | inhibition at 160 µg/mL ([2]; 96 h, 160 mg/L, read-out: Actual Inhibition Rate E): 79.3%
